Like-named read-outs stand apart in the source and are kept apart here.
Tests used:
[1] = target: STLV-1 IN(A219E) as assembled into the intasome for cryo-EM (simian T-cell lymphotropic virus type 1 (STLV-1), isolate MarB43); assay: cryo-EM structure
[2] = tested on: HTLV-1; conditions: cited from earlier work
[3] = tested on: HIV-1; conditions: HIV-1 infection model; supplementary ref 18; read-out: HIV-1 EC50 ± stdev; cited from earlier work
[4] = target: T1, recombinant HTLV-1 IN (Human T-cell leukemia virus 1, UniProt P03362); conditions: previously obtained values, read-out: HTLV-1 IN strand transfer IC50, cited from earlier work
T1 construct: made in house

[5] = tested on: HTLV-1; assay: MT-2-Jurkat cell-to-cell HTLV-1 infection, proviral load by qPCR; type: cell-based; conditions: HTLV-1 infection of Jurkat T cells
Description: Six of the most promising compounds were selected for assessment of their efficacy in inhibiting HTLV-1 viral infection. To this end, we employed an MT-2-Jurkat co-culture relying on cell-to-cell-based HTLV-1 transmission, which we successfully used in a previous study. In this assay format, the infection of Jurkat cells is measured via real-time quantitative PCR (qPCR) determination of the proviral load (PVL). […] A block in the integration reaction was confirmed by Alu-qPCR experiments (Supplementary Fig. 6). […] We suspect this is owing to a more efficient uptake of BIC than RAL by Jurkat T cells.
MT-2 and E6.1 Jurkat T-cell lines (ATCC) were used for the experiments. The cells were cultured at 37 °C with 5% CO2 and maintained in Roswell Park Memorial Institute (RPMI) media supplemented with 10% fetal bovine serum (FBS), 100 U penicillin, 100 μg/mL streptomycin and 0.25 μg/mL fungizone.
The HTLV-1 cell-to-cell infection was performed as previously described; Jurkat T cells were counted and diluted in complete RPMI to a final concentration of 0.25 × 10^6 cells/ml and pre-treated with INSTI drugs (final concentration ranging from 0.2 pM to 2 μM) or DMSO as a control for 24 h. MT-2 cells were resuspended in RPMI at a concentration of 2 × 10^6 cells/ml and subjected to a nonlethal γ-radiation dose of 400 Gy. Cells were resuspended at a concentration of 2 × 10^6 cells/ml in serum-free RPMI supplemented with the corresponding INSTI drug. Co-culture of 0.5 × 10^6 for each cell line was carried out for 16 h, after which cells were washed in PBS and resuspended in 1 ml of depletion buffer (PBS, 0.1% FBS and 2 mM EGTA). MT-2 cells were depleted from the culture by means of anti-CD25 magnetic beads (DynabeadsTM CD25, Thermo Fisher). Depletion efficiency was confirmed via flow cytometry as described previously. Jurkat cells were cultured for 2 weeks in complete RPMI supplemented with the drugs and genomic DNA was extracted (DNeasy kit, Qiagen) and stored at −20 °C for subsequent analysis. All the experiments were done in triplicate.
The PVL was measured as previously described[9],[53],[54]. Jurkat genomic DNA was quantified and diluted to a concentration of 5 ng/μL. Real-time qPCR analysis were conducted on 20 ng of gDNA to measure the level of HTLV-1 tax and gapdh genes (Supplementary Table 5). For the standard curve, the gDNA from an HTLV-1 naturally infected T-cell clone (clone 11.50, courtesy of professor Charles Bangham), which has one copy of tax and two of gapdh, was used. The integrated provirus copy number was calculated as follows: (tax copy numbers)/(2×gapdh copy number)[53], and normalised to the DMSO-treated control which was set to 100%. The PVL data were fitted to a dose–response curve in Prism 7 and the EC50 was calculated. Alu-PCR was performed as previously described in ref. [55]. In brief, the first PCR reaction was done with Phusion polymerase starting from 80 ng of gDNA using the ALU-specific primers (Alu-F/Gag-R). The nested PCR was run diluting the amplificated product 1:50. The reaction was done as a qPCR using Gag-specific primers (Gag-R/Gag-F) and the Luna SYBR dye reaction mix (New England Biolabs). The integrated provirus copy numbers were normalised to GAPDH and Jurkat cells treated with DMSO and infected with HTLV-1 were set to 100%. Experiments were done in triplicate.

[6] = tested on: STLV-1 intasome; assay: EMSA of stability (retention) of assembled STLV-1 intasome; conditions: three hours of incubation with the drug
Description: The donor DNA (vDNA) that mimics the 3′-processed LTR of STLV-1 DNA was preassembled by annealing Atto-680-labelled MarB43_U5_S30UP and MarB43_U5_S30B oligonucleotides (Supplementary Table 4) in 100 mM Tris pH 7.4, 400 mM NaCl. In all, 16 μg of STLV-1 IN or its mutants were co-incubated with 38.4 μg of LEDGF/ΔIBD-B56γ at 4 °C for 30 min to allow binding. Samples were then supplemented with 0.5 μL 20 μM Atto680-labelled vDNA, and sufficiently diluted to give a final NaCl concentration of 60 mM. This was immediately placed in a 37 °C heating block for 10 min. The sample was then returned to room temperature (RT) and any precipitate was resolubilised by the addition of NaCl to a final concentration of 1.2 M. After equilibration of the samples at RT for 10 min, the samples were either immediately supplemented with 10 μg/mL heparin or, where stated, were incubated further or additional reagents/INSTIs were added, as described. Samples, supplemented with 10 μg/mL heparin, devoid of loading dye were carefully loaded onto a 3% low melting point agarose gel containing 10 μg/mL heparin and electrophoresed, avoiding overheating. Densitometry analysis was carried out in ImageJ v1.50i. Measurements from at least three independent experiments were taken. Standard deviations and p values were calculated in Prism 9.
Supplementary Figure 10 | STLV-1 IN A219E binds more B56g and stabilises the deltaretroviral intasome. a, Pulldown of LEDGF/ΔIBD-B56γ by wild type His6-STLV-1 IN and its mutants. Mutations introduced in the IN:B56 binding interface can strengthen the interaction. b, A219E-mutated STLV-1 IN increases the amount of intasome assembled in vitro in an EMSA assay, compared to wild type IN. Values are normalised to wild type STLV-1 IN. c, EMSA study of the effect of addition of BIC on the stability (retention) of the assembled STLV-1 intasome after three hours of incubation with the drug. Values shown represent percentage of intasome retained as compared to intasome assayed by EMSA straight after assembly. Averages and standard deviations are shown for two independent biological replicates. Primary data from pull-down assays and EMSA is also included below each panel. The red arrow indicates the intasome band. INSTI, integrase strand transfer inhibitor. Source data are provided as a Source Data File.
(1 picture or pasted object on this page, not shown here)

[7] = target: 6xHis-tagged STLV-1 MarB43 integrase A219E (simian T-cell lymphotropic virus type 1 (STLV-1), isolate MarB43); assay: pull-down

STLV-1 IN(A219E) as assembled into the intasome for cryo-EM (enzyme)
stoichiometry N [1]: 4

O=C(NCc1c(F)cc(F)cc1F)c1cn2c(c(O)c1=O)C(=O)N1[C@H]3CC[C@H](C3)O[C@@H]1C2 [Bictegravir]
EC50 ([2]; MT-2-Jurkat cell-to-cell infection, read-out: HTLV-1 EC50): 0.3 ± 0.173 nM | EC50 ([2]; Replicate 1, previously reported values, read-out: HTLV-1 infection EC50): 0.54 nM | EC50 ([2]; Replicate 2, previously reported values, read-out: HTLV-1 infection EC50): 0.44 nM | EC50 [3]: 1.6 ± 0.4 nM | IC50 ([4]; Replicate 1): 163 nM | IC50 ([4]; Replicate 2): 136 nM | IC50 ([4]; Replicate 3): 212 nM | improvement in EC50 compared with RAL [5]: 20 fold | percentage of intasome retained ([6]; 1 uM, Replicate 1): 54.7791% | percentage of intasome retained ([6]; 1 uM, Replicate 2): 56.5068% | percentage of intasome retained ([6]; 50 uM, Replicate 1): 73.5691% | percentage of intasome retained ([6]; 50 uM, Replicate 2): 117.429% | percentage of intasome retained ([6]; 50 uM, Replicate 3): 83.837%

LEDGF/ΔIBD-B56γ (from UniProt Q13362 11-380)
fold B56γ recovered against WT IN [7]: 2 fold

From article PMC8370991, “Structural basis for the inhibition of HTLV-1 integration inferred from cryo-EM deltaretroviral intasome structures” (Nature Communications, 2021)
